Data on 19 compounds can be found in US20120165319A1, “INHIBITORS OF INTERLEUKIN-1 BETA CONVERTING ENZYME” (VERTEX PHARMACEUTICALS INCORPORATED, priority 1995, published 2012).

The subject of the experiment is IL-1β, human peripheral blood mononuclear cells (PBMC). Description: PBMC cell assay: IL-1β assay with human PBMC or enriched adherent mononuclear cells, LPS-stimulated. The format is cell-based. The essentials: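 Mature IL-1β is measured by ELISA in supernatants after 16–18 hr at 37 °C, 5% CO2, with LPS (5 ng/ml final) and test compound (0.1% DMSO final). Cells are human PBMC (6×10^6 cells/ml) or plate-adherent mononuclear cells (2.5−3.0×10^5 per well), and the 5–6 compound concentrations span the ICE Ki.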

Setting [1] is: Homo sapiens, PBMC, * = values obtained upon reassay.
Setting [2] is: * = values obtained upon reassay.

One may read the IC50 as the point on the concentration scale where inhibition reaches its midpoint. Read a high IC50 as weaker potency in that assay. As to `O=C(O)C[C@H](NC(=O)[C@@H]1CCCN2C(=O)CC[C@H](NC(=O)OCc3ccccc3)C(=O)N12)C(=O)COC(=O)c1c(Cl)cccc1Cl` [Compound 217d, [3S(1S,9S)]3-(9-Benzyloxycarbonylamino-6,10-dioxo-1,2,3,4,7,8,9,10-octahydro-6H-pyridazino[1,2-a][1,2]-diazepine-1-carboxamido)-5-(2,6-dichlorobenzoyloxy)-4-oxopentanoic acid], the IC50 under setting [1] is 340 nM.
Still for that read-out and setting: the value for `O=C[C@H](CC(=O)O)NC(=O)[C@@H]1CCCN2C(=O)CC[C@H](NC(=O)c3cccc(Cl)c3)C(=O)N12` [Compound 455] was 400 nM.
As to `O=C[C@H](CC(=O)O)NC(=O)[C@@H]1CCCN2C(=O)CCN(NC(=O)c3cc4ccccc4s3)C(=O)N12` [Compound 1053, [3S(4S)]3-[7-(Benzo[b]thiophene-2-carbonyl)amino-6,10-dioxo-1,2,3,4,7,8,9,10-octahydro-6H-pyridazino[1,2-a][1,2,4]triazepine-4-carboxamido]-4-oxobutanoic acid], the IC50 (Homo sapiens, PBMC, Table 17) stood at 2000 nM.
Take `Cc1nc(C)c(C(=O)N[C@H]2CCC(=O)N3CCC[C@@H](C(=O)N[C@H](C=O)CC(=O)O)N3C2=O)s1` [Compound 423]: the IC50 is, setting by setting: under setting [2], 1800 nM; under setting [1], 2100 nM.
Consider `O=C(O)C[C@H](NC(=O)[C@@H]1CCCN2C(=O)CC[C@H](NC(=O)CCc3ccccc3)C(=O)N12)C(=O)c1ncc(-c2c(Cl)cccc2Cl)o1` [Compound 137], for which the IC50 under setting [1] was 1700 nM.
`COCC(=O)N1C[C@H](NC(=O)c2cccc3ccccc23)C(=O)N(CC(=O)N[C@H](C=O)CC(=O)O)c2ccccc21` [Compound 2201, (3S)-3-[(3S)-2-oxo-3-(1-naphthoyl)amino-5-methoxyacetyl-2,3,4,5-tetrahydro-1H-1,5-benzodiazepine-1-acetylamino]4-oxo-butyric acid]: the IC50 reads like this: under setting [2], 3700 nM; under setting [1], 2000 nM.
`COCC(=O)N1C[C@H](NC(=O)c2ccccc2)C(=O)N(CC(=O)N[C@H](C=O)CC(=O)O)c2ccccc21` [Compound 605e, (3S)-3-[(3S)-2-Oxo-3-benzoylamino-5-methoxyacetyl-2,3,4,5-tetrahydro-1H-1,5-benzodiazepin-1-acetylamino]-4-oxo-butyric acid] gave an IC50 under setting [1] of 2250 nM.
In turn, `CS(=O)(=O)N[C@H]1CCC(=O)N2CCC[C@@H](C(=O)N[C@@H](CC(=O)O)C(=O)COC(=O)c3cccc4ccccc34)N2C1=O` [Compound 286, [3S(1S,9S)]3-(6,10-Dioxo-9-methanesulphonylamino-1,2,3,4,7,8,9,10-octahydro-6H-pyridazino[1,2-a][1,2]diazepine-1-carboxamido)-5-(1-naphthoyloxy)-4-oxopentanoic acid] displayed an IC50 (Table 18) of 300 nM.
Compound `O=C(O)C[C@H](NC(=O)[C@@H]1CCCN2C(=O)CC[C@H](NC(=O)CCc3ccccc3)C(=O)N12)C(=O)CSCc1ccccc1Cl` [Compound 125b, [3S(1S,9S)]-3-(6,10-dioxo-1,2,3,4,7,8,9,10-octahydro)-9-(3-phenylpropionyl-amino)-6H-pyridazine[1,2-a][1,2]diazepine-1-carboxamido-5-(2-chlorophenyl-methylthio)-4-oxopentanoic acid] yielded an IC50 under setting [1] of 800 nM.
Where the note is “Homo sapiens, PBMC, Table 17”, `CC(=O)Nc1ccc(C(=O)NN2CCC(=O)N3CCC[C@@H](C(=O)N[C@H](C=O)CC(=O)O)N3C2=O)cc1` [Compound 1018, [3S(4S)]3-{7-[(4-Acetamido)benzamido]-6,10-Dioxo-1,2,3,4,7,8,9,10-octahydro-6H-pyridazino[1,2-a][1,2,4]-triazepine-4-carboxamido}-4-oxobutanoic acid] had an IC50 of 4000 nM.
The compound `Cc1cc(C(=O)N[C@H]2CN(C(=O)CO)c3ccccc3N(CC(=O)N[C@H](C=O)CC(=O)O)C2=O)cc(C)c1O` [Compound 691a, (3S)-3-[(3S)-2-Oxo-3-(3,5-dimethyl-4-hydroxybenzoyl)amino-5-hydroxyacetyl-2,3,4,5-tetrahydro-1H-1,5-benzodiazepine-1-acetylamino]-4-oxo-butyric acid] yielded an IC50 (Homo sapiens, PBMC, Table 17) of 2900 nM.
Still for that read-out and setting: the same measure for `O=C[C@H](CC(=O)O)NC(=O)[C@@H]1CCCN2C(=O)CCN(NC(=O)c3cc4ccccc4[nH]3)C(=O)N12` [Compound 1075, [3S(4S)]3-[6,10-Dioxo-7-(indole-2-carboxamido)-1,2,3,4,7,8,9,10-octahydro-6H-pyridazino[1,2-a][1,2,4]triazepine-4-carboxamido]-4-oxobutanoic acid]: 5000 nM.
Regarding `CC(C)C(=O)Nc1ccc(C(=O)N[C@H]2CCC(=O)N3CCC[C@@H](C(=O)N[C@H](C=O)CC(=O)O)N3C2=O)cc1` [Compound 484], the IC50 reads like this: under setting [2], 1400 nM; under setting [1], 1550 nM.
`O=C(O)C[C@H](NC(=O)[C@@H]1CCCN2C(=O)CC[C@H](NC(=O)c3ccccc3)C(=O)N12)C(=O)COc1cccnc1` [Compound 283, [3S(1S,9S)]3-[9-Benzoylamino-6,10-dioxo-1,2,3,4,7,8,9,10-octahydro-6H-pyridazino[1,2-a][1,2]diazepine-1-carboxamido]-4-oxo-5-(3-pyridyloxy)pentanoic acid] gave an IC50 under setting [1] of under 200 nM.
The compound `CS(=O)(=O)N[C@H]1CCC(=O)N2CCC[C@@H](C(=O)N[C@@H](CC(=O)O)C(=O)COC(=O)c3sccc3Cl)N2C1=O` [505 e, [3S(1S,9S)]5-(3-Chlorothien-2-oyloxy)-3-(6,10-dioxo-9-methanesulphonylamino-1,2,3,4,7,8,9,10-octahydro-6H-pyridazino[1,2-a][1,2]diazepine-1-carboxamido)-4-oxopentanoic acid] returned an IC50 (Table 18) of 9000 nM.
For the setting “Homo sapiens, PBMC, Table 17”, `CC(=O)N1C[C@H](NC(=O)c2cc(C)c(O)c(C)c2)C(=O)N(CC(=O)N[C@H](C=O)CC(=O)O)c2ccccc21` [Compound 671, (3S)-3-[(3S)-2-Oxo-3-(3,5-dimethyl-4-hydroxybenzoyl)amino-5-acetyl-2,3,4,5-tetrahydro-1H-1,5-benzodiazepine-1-acetylamino]-4-oxo-butyric acid] displayed an IC50 of 2000 nM.
`O=C(O)C[C@H](NC(=O)[C@@H]1CCCN2C(=O)CC[C@H](NC(=O)c3ccccc3)C(=O)N12)C(=O)CSc1nnnn1-c1ccccc1` [Compound 280, [3S(1S,9S)]3-(9-Benzoylamino-6,10-dioxo-1,2,3,4,7,8,9,10-octahydro-6H-pyridazino[1,2-a][1,2]diazepine-1-carboxamido)-4-oxo-5(1-phenyl-1H-tetrazole-5-thio)pentanoic acid]: under setting [1], half-maximal inhibition (IC50) required 650 nM.
For the compound `O=C[C@H](CC(=O)O)NC(=O)CN1C(=O)[C@@H](NC(=O)c2nccc3ccccc23)CN(C(=O)CO)c2ccccc21` [Compound 696, (3S)-3-[(3S)-2-Oxo-3-(isoquinolin-1-oyl)amino-5-hydroxyacetyl-2,3,4,5-tetrahydro-1H-1,5-benzodiazepine-1-acetylamino]-4-oxo-butyric acid], the IC50 (Homo sapiens, PBMC, Table 17) was 2000 nM.
`O=C[C@H](CC(=O)O)NC(=O)[C@@H]1CCCN2C(=O)CC[C@H](NC(=O)c3nccc4ccccc34)C(=O)N12` [Compound 412, [3S(1S,9S)]3-[6,10-Dioxo-9-(isoquinolin-1-oylamino)-1,2,3,4,7,8,9,10-octahydro-6H-pyridazino[1,2-a][1,2]diazepine-1-carboxamido]-4-oxobutanoic acid] registered an IC50 under setting [2] of 660 nM and an IC50 under setting [1] of 580 nM.
